Measured values: US11339130B1 (Blade Therapeutics, Inc., priority 2016, dated 2022)
Read-outs that look alike come from different tables or passages of the source.

Tests used:
[1] = tested on: Calpain activity in SH-SY5Y cells; experiment: SH-SY5Y + AMC fluorescence assay (Suc-LLVY-AMC substrate); assay type: cell-based; details: read-out: SH-SY5Y + AMC IC50
[2] = tested on: Calpain activity in SH-SY5Y cells (SBDP-150); experiment: SH-SY5Y Spectrin western blot assay (SBDP-150 breakdown product, A23187-induced); assay type: cell-based; details: SH-SY5Y cells, read-out: SH-SY5Y Spectrin IC50
[3] = target: T1, Human Calpain 9/NS1 (Homo sapiens, UniProt O14815); experiment: Calpain inhibition continuous fluorescence (FRET) assay, Human Calpain 9/NS1; assay type: biochemical; details: read-out: Human Calpain 9/NS1 IC50
T1 sequence (O14815 1-690): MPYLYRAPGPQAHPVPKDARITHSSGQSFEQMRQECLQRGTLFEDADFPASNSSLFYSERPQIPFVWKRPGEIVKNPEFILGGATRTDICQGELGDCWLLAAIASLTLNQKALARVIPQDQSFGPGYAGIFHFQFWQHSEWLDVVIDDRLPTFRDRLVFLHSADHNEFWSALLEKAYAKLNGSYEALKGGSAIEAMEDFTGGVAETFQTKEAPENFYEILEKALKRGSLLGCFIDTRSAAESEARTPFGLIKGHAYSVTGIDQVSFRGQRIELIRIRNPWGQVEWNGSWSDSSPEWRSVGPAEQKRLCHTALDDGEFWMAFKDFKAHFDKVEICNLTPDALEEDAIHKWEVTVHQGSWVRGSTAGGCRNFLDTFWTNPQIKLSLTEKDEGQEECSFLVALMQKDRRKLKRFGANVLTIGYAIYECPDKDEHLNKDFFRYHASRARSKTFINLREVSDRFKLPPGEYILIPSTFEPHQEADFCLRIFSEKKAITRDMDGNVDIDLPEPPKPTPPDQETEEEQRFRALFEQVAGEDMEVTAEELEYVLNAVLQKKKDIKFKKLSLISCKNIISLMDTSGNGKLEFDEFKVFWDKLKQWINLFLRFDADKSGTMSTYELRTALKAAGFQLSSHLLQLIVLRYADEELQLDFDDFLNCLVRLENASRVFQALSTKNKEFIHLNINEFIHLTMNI
T1 sequence (P04632 1-268 partner): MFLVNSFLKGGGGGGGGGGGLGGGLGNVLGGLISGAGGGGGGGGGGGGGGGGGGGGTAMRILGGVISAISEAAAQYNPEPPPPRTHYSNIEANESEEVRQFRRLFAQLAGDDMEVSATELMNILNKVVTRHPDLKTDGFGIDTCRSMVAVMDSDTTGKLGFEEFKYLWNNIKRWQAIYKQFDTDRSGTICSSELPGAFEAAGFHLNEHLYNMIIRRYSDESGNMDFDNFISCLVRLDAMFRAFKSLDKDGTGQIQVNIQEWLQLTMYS
Method in brief: (§1)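 Fluorescence increase from the cleaved 5-FAM/QXL 520 substrate, read at 490/520 nm, gave activity. Calcium was supplied with the substrate to activate the enzyme in situ after a 25C enzyme-inhibitor preincubation, and IC50s were fit from initial slopes.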

[4] = target: T2, Human Calpain 1/NS1 (Homo sapiens, UniProt P07384); experiment: Calpain inhibition continuous fluorescence (FRET) assay, Human Calpain 1/NS1; assay type: biochemical; details: read-out: Human Calpain 1/NS1 IC50
T2 sequence (P07384 1-714): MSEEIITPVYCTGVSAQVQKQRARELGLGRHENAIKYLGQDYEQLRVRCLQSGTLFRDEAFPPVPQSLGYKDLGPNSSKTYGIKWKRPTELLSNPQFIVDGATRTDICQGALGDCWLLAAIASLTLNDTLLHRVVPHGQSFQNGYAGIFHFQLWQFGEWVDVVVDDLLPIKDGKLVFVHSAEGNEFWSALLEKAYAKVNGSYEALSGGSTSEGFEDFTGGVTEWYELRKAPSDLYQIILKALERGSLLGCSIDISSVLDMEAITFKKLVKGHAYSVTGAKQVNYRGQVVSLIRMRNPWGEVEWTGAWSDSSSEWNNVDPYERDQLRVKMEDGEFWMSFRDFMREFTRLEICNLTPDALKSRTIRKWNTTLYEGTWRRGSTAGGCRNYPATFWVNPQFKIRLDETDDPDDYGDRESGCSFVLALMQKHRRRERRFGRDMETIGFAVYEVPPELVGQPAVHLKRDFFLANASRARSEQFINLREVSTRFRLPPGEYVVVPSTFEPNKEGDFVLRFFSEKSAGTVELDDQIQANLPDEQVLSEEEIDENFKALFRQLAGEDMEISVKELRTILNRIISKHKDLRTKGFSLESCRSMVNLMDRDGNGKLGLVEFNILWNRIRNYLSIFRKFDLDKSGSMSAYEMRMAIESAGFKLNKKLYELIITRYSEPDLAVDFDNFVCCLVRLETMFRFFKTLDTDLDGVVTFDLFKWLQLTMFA
T2 sequence (P04632 1-268 partner): T1 sequence (P04632 1-268 partner)
Method in brief: as §1

[5] = target: T3, Human Calpain 2/NS1 (Homo sapiens, UniProt P17655); experiment: Calpain inhibition continuous fluorescence (FRET) assay, Human Calpain 2/NS1; assay type: biochemical; details: read-out: Human Calpain 2/NS1 IC50
T3 sequence (P17655 1-700): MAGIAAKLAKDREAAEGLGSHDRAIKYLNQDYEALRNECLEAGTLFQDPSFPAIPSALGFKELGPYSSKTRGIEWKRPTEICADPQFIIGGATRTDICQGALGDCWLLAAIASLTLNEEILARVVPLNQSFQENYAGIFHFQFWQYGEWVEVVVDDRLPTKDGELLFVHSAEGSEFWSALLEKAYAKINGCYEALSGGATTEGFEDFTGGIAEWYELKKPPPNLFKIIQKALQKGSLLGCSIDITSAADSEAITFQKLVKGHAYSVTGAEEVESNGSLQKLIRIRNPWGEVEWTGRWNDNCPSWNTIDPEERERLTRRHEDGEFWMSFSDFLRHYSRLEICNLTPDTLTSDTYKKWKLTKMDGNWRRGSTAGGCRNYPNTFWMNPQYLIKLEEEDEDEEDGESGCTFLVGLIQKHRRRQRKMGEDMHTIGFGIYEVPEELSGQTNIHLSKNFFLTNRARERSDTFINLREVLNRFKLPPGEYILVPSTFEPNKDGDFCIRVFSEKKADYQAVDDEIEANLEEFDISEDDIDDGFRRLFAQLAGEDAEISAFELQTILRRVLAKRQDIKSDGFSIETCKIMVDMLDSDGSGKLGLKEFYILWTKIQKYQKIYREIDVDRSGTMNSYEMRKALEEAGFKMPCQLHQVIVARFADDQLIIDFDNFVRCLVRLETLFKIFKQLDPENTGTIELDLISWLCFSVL
T3 sequence (P04632 1-268 partner): T1 sequence (P04632 1-268 partner)
Method in brief: as §1

[6] = Homo sapiens, A23187-induced SBDP-150, western blot
[7] = Homo sapiens, Column D, A23187-induced SBDP-150

Cc1nc(-c2ccccc2)c(C(=O)N[C@@H](Cc2c[nH]c3ccccc23)C(=O)C(N)=O)o1 [Compound 389, (S)—N-(4-amino-1-(1H-indol-3-yl)-3,4-dioxobutan-2-yl)-2-methyl-4-phenyloxazole-5-carboxamide]
IC50 [1]: < 10 µM | IC50 [2, 6]: < 10 µM | IC50 [3]: < 3 µM | IC50 [4]: < 3 µM | IC50 [5]: < 3 µM

Cn1cc(C(=O)NC(Cc2cc(Cl)cc(Cl)c2)C(=O)C(N)=O)c(-c2ccccc2)n1 (stereo not shown) [Compound 418, N-(4-amino-1-(3,5-dichlorophenyl)-3,4-dioxobutan-2-yl)-1-methyl-3-phenyl-1H-pyrazole-4-carboxamide]
IC50 [1]: 10 to 25 µM | IC50 [2, 6]: 10 to 25 µM | IC50 [3]: < 3 µM | IC50 [4]: < 3 µM | IC50 [5]: < 3 µM

Cn1cc(C(=O)NC(Cc2ccccc2)C(=O)C(N)=O)c(-c2ccc(F)cc2)n1 (stereo not shown) [Compound 447, N-(4-amino-3,4-dioxo-1-phenylbutan-2-yl)-3-(4-fluorophenyl)-1-methyl-1H-pyrazole-4-carboxamide]
IC50 [1]: 10 to 25 µM | IC50 [2, 6]: 10 to 25 µM | IC50 [3]: < 3 µM | IC50 [4]: < 3 µM | IC50 [5]: < 3 µM

NC(=O)C(=O)C(Cc1ccccc1)NC(=O)c1cn(C(F)F)nc1-c1ccnc2ccccc12 (stereo not shown) [Compound 596, N-(4-amino-3,4-dioxo-1-phenylbutan-2-yl)-1-(difluoromethyl)-3-(quinolin-4-yl)-1H-pyrazole-4-carboxamide]
IC50 [1]: < 10 µM | IC50 [2, 6]: 10 to 25 µM | IC50 [3]: < 3 µM | IC50 [4]: < 3 µM | IC50 [5]: < 3 µM

Cc1cc(C(=O)NC(Cc2ccccc2)C(=O)C(N)=O)c(-n2cc3ccccc3n2)s1 (stereo not shown) [Compound 428, N-(4-amino-3,4-dioxo-1-phenylbutan-2-yl)-2-(2H-indazol-2-yl)-5-methylthiophene-3-carboxamide]
IC50 [1]: > 25 µM | IC50 [2, 6]: < 10 µM | IC50 [3]: < 3 µM | IC50 [4]: < 3 µM | IC50 [5]: < 3 µM

Methyl (S)-(4-(5-((4-amino-3,4-dioxo-1-phenylbutan-2-yl)carbamoyl)-3-methyl-1H-pyrazol-1-yl)benzyl)carbamate [Compound 161]
IC50 ([1]; Column E): > 25 µM | IC50 ([2]; Column D, A23187-induced SBDP-150): < 10 µM | IC50 ([3]; Column C): < 3 µM | IC50 ([4]; Column A): < 3 µM | IC50 ([5]; Column B): < 3 µM

NC(=O)C(=O)C(Cc1ccccc1)NC(=O)c1cc(Cl)nn1-c1ncccn1 (stereo not shown) [Compound 350, N-(4-amino-3,4-dioxo-1-phenylbutan-2-yl)-3-chloro-1-(pyrimidin-2-yl)-1H-pyrazole-5-carb oxamide]
IC50 [1]: < 10 µM | IC50 [2, 6]: 10 to 25 µM | IC50 [3]: < 3 µM | IC50 [4]: < 3 µM | IC50 [5]: < 3 µM

NC(=O)C(=O)C(Cc1ccccc1)NC(=O)c1cn(C(F)F)nc1-c1ccc2ccccc2n1 (stereo not shown) [Compound 588, N-(4-amino-3,4-dioxo-1-phenylbutan-2-yl)-1-(difluoromethyl)-3-(quinolin-2-yl)-1H-pyrazole-4-carboxamide]
IC50 [1]: > 25 µM | IC50 [2, 6]: 10 to 25 µM | IC50 [3]: < 3 µM | IC50 [4]: < 3 µM | IC50 [5]: < 3 µM

NC(=O)C(=O)C(Cc1ccccc1)NC(=O)c1oc(C2CC2)nc1-c1ccccc1 (stereo not shown) [Compound 393, N-(4-amino-3,4-dioxo-1-phenylbutan-2-yl)-2-cyclopropyl-4-phenyloxazole-5-carboxamide]
IC50 [1]: < 10 µM | IC50 [2, 6]: 10 to 25 µM | IC50 [3]: < 3 µM | IC50 [4]: < 3 µM | IC50 [5]: < 3 µM

Cc1cc(C(=O)N[C@@H](Cc2ccccc2)C(=O)C(N)=O)c(-c2ccccc2)o1 [Compound 118, (S)—N-(4-amino-3,4-dioxo-1-phenylbutan-2-yl)-5-methyl-2-phenylfuran-3-carboxamide]
IC50 ([1]; Column E): > 25 µM | IC50 [2, 7]: < 10 µM | IC50 ([3]; Column C): < 3 µM | IC50 ([4]; Column A): < 3 µM | IC50 ([5]; Column B): < 3 µM

CCOCc1cccc(-n2nc(C)cc2C(=O)N[C@@H](Cc2ccccc2)C(=O)C(N)=O)c1 [Compound 229, (S)—N-(4-amino-3,4-dioxo-1-phenylbutan-2-yl)-1-(3-(ethoxymethyl)phenyl)-3-methyl-1H-pyrazole-5-carboxamide]
IC50 ([1]; Column E): < 10 µM | IC50 [2, 7]: < 10 µM | IC50 ([3]; Column C): < 3 µM | IC50 ([4]; Column A): < 3 µM | IC50 ([5]; Column B): < 3 µM
